Key:
[1] = tested on: rabbit model of regional myocardial ischemia; test: Infarct size in rabbits, 30 min coronary occlusion and 3 h reperfusion; assay type: in vivo, New Zealand white rabbits
Description: Male New Zealand white rabbits weighing 2.5-3.5 kg were injected with vehicle or L34 24 h before the experiment. L34 was formulated in vehicle composed of 40% propylene glycol, 10% ethanol in water. For the experiment, animals were intramuscularly anesthetized with ketamine (35 mg/kg) and xylazine (5 mg/kg). Tracheotomy was performed and the animals intubated with a cuffed endotracheal tube (Portex, 4.0 mm internal diameter) and then mechanically ventilated with room air on a positive pressure respirator Q Industries, Mobile, Ala.). Ventilatory rate was 27-35 breaths per min, and tidal volume was approximately 10-17 ml. […] The EKG was recorded throughout the experiment via lead II of the standard elctrocardiogram. […]
At the end of each experiment, the ligature around the large marginal branch of the circumflex artery was retightened to reocclude the artery and approximately 4 ml of 10% Evans blue dye was injected into the jugular vein until the eyes turned blue. […] The area at risk was determined by negative staining and calculated as a percentage of the portion of left ventricle containing the risk area (AAR/LV %) and infarct size as a percentage of area at risk (IS/AAR %). […] Regions of infarcted tissue and the risk zone were determined by computer morphometry using Bioquant imaging software and the percentage of infarcted area and risk area calculated.

[2] = tested on: Mongrel dogs, LAD occlusion/reperfusion; test: Infarct size in dogs with bolus plus drug infusion; assay type: in vivo, dog; settings: FIG. 3
Description: Mongrel dogs weighing 16-24 kg were randomly assigned to one of four groups: vehicle control; L34 high dose bolus plus infusion; L34 low dose bolus plus infusion and L34 bolus only. Animals in the L34 high dose bolus plus infusion group received an intravenous bolus injection of 70 μg/kg L34 formulated in vehicle (40% propylene glycol and 10% ethanol in water) and diluted in 5% dextrose in water to a final volume of 10 ml immediately followed by 40 μg/kg/h infusion of the drug beginning three hours prior to occlusion. The low dose bolus plus infusion group of dogs were bolus dosed with 35 μg/kg of drug followed immediately thereafter by infusion of drug at a dose of 4.0 μg/kg/h. […]
After stabilization, animals underwent a 60 min period of occlusion. Heart rate and arterial pressures were monitored at baseline, immediately before the sustained occlusion, and at 10 min after the onset of occlusion. […] The severity of ischemia was assessed in all dogs by measurement of RMBF at 10 min after the onset of LAD occlusion.
At the end of 3 h reperfusion the LAD was reoccluded and UNISPERSE® blue pigment (0.25-0.5 ml/kg) was injected into the coronary vasculature via the left atrial catheter to delineate the in vivo boundaries of the occluded LAD bed, and, with animals under deep anesthesia, cardiac arrest was produced by intracardiac injection of KCl. […] RMBF was then quantified using standard methods.

[3] = tested on: TNF-α secretion by THP-1 cells; test: TNF-α secretion in THP-1 cells (ELISA); assay type: cell-based, human; settings: any concentration between 1 ng/ml and 10 μg/ml; supernatants at 4, 16 and 24 hours
Description: (§1) The human myelomonocytic cell line THP-1 is commonly used for the analysis of the proinflammatory status of various compounds. THP-1 cells (American Type Culture Collections Cat. No. 202-TIB) were grown in RPMI 1640, 10% heat inactivated fetal bovine serum (FBS) and […] β-mercaptoethanol to a cell density of between 4×10^5/ml and 7×10^5/ml. Cells were removed from culture and resuspended at 1×10^6 cells/ml in RPMI 1640 containing 5% fetal bovine serum. Resuspended cells were then pipetted into sterile, disposable polystyrene 150×25 mm petri dishes and treated with the natural maturational agent 1α, 25-dihyroxyvitamin D3 at 1×10^−7 M between 24 and 72 hours depending on the degree of maturation desired. These maturationally “pretreated” cells were then washed 3× in RPMI 1640 containing more than 2% but less than 10% fetal bovine serum. After the third wash cells were resuspended in RPMI 1640 containing 5% FBS plus 2% human AB sera (Irvine Scientific) at 5×10^5 cells/ml and transferred at 2 ml per well in a tissue culture grade, flat bottom polystyrene 24 well plate. […] Cytokine concentration in the THP-1 culture supernatants were quantified using standard human cytokine ELISA kits from R&D Laboratories. […]

[4] = tested on: IL-8 secretion by THP-1 cells; test: IL-8 secretion in THP-1 cells (ELISA); assay type: cell-based, human; settings: any concentration between 1 ng/ml and 10 μg/ml; supernatants at 4, 16 and 24 hours
Description: as §1

Compound: CCCCCCCCCCCCCCCCCC(=O)O[C@H](CCCCCCCCCCC)CC(=O)N[C@H]1[C@H](OC[C@H]2OC(O)[C@H](NC(=O)C[C@@H](CCCCCCCCCCC)OC(=O)CCCCCCCCCCCCCCC)[C@@H](O)[C@@H]2O)O[C@H](CO)[C@@H](OP(=O)(O)O)[C@@H]1OC(=O)C[C@@H](CCCCCCCCCCC)OC(=O)CCCCCCCCCCCCC (stereo partly drawn) [L34, 2-Deoxy-6-O-[2-deoxy-4-O-phosphono-3-O-[(R)-3-tetradecanoyloxytetradecanoyl]-2-[(R)-3-octadecanoyloxytetradecanoylamino]-β-D-glucopyranosyl]-2-[(R)-3-hexadecanoyloxytetradecanoylamino]-D-glucopyranose]
- reduction in infarct size (percentage of area at risk) compared to controls ([1]; 35 μg/kg given 24 h before ischemia, FIG. 1): approximately 70%
- reduction in infarct size, dose response ([1]; doses of 10 to 35 μg/kg given 24 h before ischemia, FIG. 2): > 50%
- infarct size as ratio of area of necrosis (AN) to area at risk (AR) ([2]; 70 μg/kg bolus only, 3 h before occlusion): no reduction in infarct size
- infarct size as ratio of area of necrosis (AN) to area at risk (AR) ([2]; bolus (70 or 35 μg/kg) plus infusion (40 or 4.0 μg/kg/h) beginning 3 h prior to occlusion): statistically significant reduction in infarct size
- TNF-α secretion [3]: did not induce detectable
- IL-8 secretion [4]: did not induce detectable

From patent US6399590B2, “Phosphoglycolipid and methods for its use” (Corixa Corporation, priority 1998, dated 2002)
